Activity calls are given as the source filed them.
Key:
[1] = target: Bcl-2-like protein 10 (Homo sapiens, UniProt Q9HD36); assay: Biochemical TR3 FP assay of Bcl-B inhibitor potency, EC50 (AID 1243); format: functional
[2] = target: T1, Induced myeloid leukemia cell differentiation protein Mcl-1 (Homo sapiens, UniProt Q07820); format: functional
[3] = A Cell Based Secondary Assay To Explore Cytotoxicity of Compounds that Sensitize Mycobacterium Tuberculosis to Beta-Lactam Antibiotics.; format: functional
[4] = HIV-1 Env-mediated cell fusion inhibitors, dose response, CCR5-tropic Env (AID 2279); format: functional
[5] = target: Bcl-2-like protein 1 (Homo sapiens, UniProt Q07817); assay: BCL-XL inhibitors, dose response, selectivity assay for MCL1 inhibitor project, biochemical, fluorescence polarization, 1536-well (AID 2218)
[6] = target: T1, Induced myeloid leukemia cell differentiation protein Mcl-1; assay: MCL1-BIM BH3 interaction inhibitors, dose response, biochemical, fluorescence polarization, BIM-BH3 peptide, 1536-well (AID 2217)
[7] = test system: HEK293; assay: Fluorescence-based counterscreen for potentiators or agonists of NPY-Y2: cell-based high-throughput dose response assay to identify inhibitors of cyclic nucleotide gated ion channel (CNGC) activity. In this assay, the parental HEK293 cell line transfected with a cyclic-nucleotide gated ion channel (CNGC)-based cAMP sensor is used to measure inhibition of isoproterenol-induced CNGC activity by test compound.; format: functional; conditions: Homo sapiens;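 also: stimulus is 1 µM isoproterenol at EC100 plus PDE inhibitor Ro 20-1724 at 25 µM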
[8] = target: T2, Neuropeptide Y receptor type 2 (Homo sapiens, UniProt P49146); assay: Fluorescence-based cell-based high-throughput dose response assay for agonists of NPY-Y2. [Related pubchem assays: 1703 (Screening assay (CNGC inhibitors).), 1359 (Screening assay (NPY-Y2 potentiators or agonists).), 1304 (Screening assay (NPY-Y1 potentiators or agonists).), 1710 (Screening assay (NPY-Y2 agonists).), 1791 (Summary AID.)]; format: functional
T2 sequence (P49146 whole entry): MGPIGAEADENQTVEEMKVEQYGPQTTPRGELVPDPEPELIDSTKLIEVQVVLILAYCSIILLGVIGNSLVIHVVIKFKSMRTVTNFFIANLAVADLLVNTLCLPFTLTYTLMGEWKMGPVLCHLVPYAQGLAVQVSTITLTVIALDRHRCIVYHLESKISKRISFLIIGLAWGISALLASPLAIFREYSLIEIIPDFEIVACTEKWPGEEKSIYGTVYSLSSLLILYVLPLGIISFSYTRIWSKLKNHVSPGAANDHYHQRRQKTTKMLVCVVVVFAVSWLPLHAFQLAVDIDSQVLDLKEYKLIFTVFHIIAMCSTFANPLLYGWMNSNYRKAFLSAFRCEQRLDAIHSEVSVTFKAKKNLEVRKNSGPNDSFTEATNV

[9] = target: T3, Neuropeptide Y receptor type 1 (Homo sapiens, UniProt P25929); assay: Fluorescence-based counterscreen for agonists of NPY-Y2: cell-based high-throughput dose response assay for agonists of NPY-Y1.; format: functional
T3 sequence (P25929 whole entry): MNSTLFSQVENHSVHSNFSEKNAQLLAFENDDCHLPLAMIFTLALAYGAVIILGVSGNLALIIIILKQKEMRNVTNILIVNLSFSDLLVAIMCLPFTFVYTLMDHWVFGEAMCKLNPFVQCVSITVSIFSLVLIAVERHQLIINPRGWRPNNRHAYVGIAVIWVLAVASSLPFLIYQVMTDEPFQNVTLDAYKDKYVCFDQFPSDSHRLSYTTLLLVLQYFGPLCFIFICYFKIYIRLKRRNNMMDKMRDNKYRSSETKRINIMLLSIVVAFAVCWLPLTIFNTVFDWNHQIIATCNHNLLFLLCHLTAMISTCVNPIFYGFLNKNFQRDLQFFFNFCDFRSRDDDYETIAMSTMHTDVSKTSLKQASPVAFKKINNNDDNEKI

[10] = target: T4, Replicative DNA helicase DnaB (Mycobacterium tuberculosis, UniProt P9WMR3); assay: DnaB intein splicing inhibitors, dose response, biochemical, cell-free fluorescence (AID 449749); format: functional
T4 sequence (P9WMR3 whole entry): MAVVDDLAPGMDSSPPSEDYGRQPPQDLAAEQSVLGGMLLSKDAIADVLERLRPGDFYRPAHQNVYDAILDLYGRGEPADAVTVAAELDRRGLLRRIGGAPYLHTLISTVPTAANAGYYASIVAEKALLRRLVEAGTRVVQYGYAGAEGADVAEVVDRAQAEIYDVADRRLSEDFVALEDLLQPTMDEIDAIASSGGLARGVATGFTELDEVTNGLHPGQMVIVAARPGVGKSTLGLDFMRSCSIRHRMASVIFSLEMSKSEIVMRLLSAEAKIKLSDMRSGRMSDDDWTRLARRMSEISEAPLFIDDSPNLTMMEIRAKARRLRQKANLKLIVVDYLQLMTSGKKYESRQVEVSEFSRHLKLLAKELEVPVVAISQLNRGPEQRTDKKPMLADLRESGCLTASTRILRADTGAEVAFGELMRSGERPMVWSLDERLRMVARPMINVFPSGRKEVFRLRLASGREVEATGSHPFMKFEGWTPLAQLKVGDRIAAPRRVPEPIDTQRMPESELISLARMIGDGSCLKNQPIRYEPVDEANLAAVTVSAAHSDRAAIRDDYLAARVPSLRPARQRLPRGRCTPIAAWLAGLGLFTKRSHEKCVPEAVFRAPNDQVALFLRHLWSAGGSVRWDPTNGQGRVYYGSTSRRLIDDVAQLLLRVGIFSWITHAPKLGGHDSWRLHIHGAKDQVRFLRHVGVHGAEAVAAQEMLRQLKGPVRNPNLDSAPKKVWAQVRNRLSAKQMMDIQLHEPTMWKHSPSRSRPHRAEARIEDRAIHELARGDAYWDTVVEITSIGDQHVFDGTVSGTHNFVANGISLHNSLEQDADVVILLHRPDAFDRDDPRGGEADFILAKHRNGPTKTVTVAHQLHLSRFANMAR

[11] = target: T5, Protein RecA (Mycobacterium tuberculosis, UniProt P9WHJ3); assay: Fluorescence Cell-Free Homogeneous Dose Retest to Identify Inhibitors of RecA-Intein Splicing Activity. [Related pubchem assays (depositor defined):AID2097, AID2223, AID489010, AID492950]; format: functional
T5 sequence (P9WHJ3 whole entry): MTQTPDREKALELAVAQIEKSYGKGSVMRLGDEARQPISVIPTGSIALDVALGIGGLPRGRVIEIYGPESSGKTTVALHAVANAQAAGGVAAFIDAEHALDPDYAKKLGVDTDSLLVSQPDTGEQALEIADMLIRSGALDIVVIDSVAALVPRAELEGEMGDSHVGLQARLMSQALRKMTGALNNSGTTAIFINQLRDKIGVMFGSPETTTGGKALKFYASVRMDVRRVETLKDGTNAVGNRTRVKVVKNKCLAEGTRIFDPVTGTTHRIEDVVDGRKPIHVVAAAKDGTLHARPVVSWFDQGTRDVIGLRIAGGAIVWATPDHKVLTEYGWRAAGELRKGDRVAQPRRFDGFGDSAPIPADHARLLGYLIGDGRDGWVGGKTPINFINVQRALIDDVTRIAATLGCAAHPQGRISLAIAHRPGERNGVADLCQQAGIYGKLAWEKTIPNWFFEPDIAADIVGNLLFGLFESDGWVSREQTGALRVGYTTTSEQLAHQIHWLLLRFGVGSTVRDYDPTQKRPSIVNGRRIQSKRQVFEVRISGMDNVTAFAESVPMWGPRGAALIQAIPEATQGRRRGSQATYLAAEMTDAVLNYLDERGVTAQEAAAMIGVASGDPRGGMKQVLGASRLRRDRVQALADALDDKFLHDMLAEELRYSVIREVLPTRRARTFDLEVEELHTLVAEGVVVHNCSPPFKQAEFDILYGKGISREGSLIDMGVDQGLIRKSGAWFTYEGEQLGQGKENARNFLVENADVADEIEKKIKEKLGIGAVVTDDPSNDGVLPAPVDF

[12] = enhancers of respiration in Yfh1-depleted yeast, dose response, Friedreich's ataxia, plus single-dose screen (AID 1465); format: functional;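 also: yeast depleted of Yfh1p frataxin homolog grown on glycerol needing respiration; WST-1 tetrazolium dye reduction as measure of cellular dehydrogenase metabolic activity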
[13] = target: Heat shock cognate 71 kDa protein (Homo sapiens, UniProt P11142); assay: In Vitro Hsc70 Dose Response Fluorescence Polarization Assay. [Related pubchem assays: 1072 ]
[14] = target: Glyceraldehyde-3-phosphate dehydrogenase (Homo sapiens, UniProt P04406)
[15] = target: Heat shock 70 kDa protein 1A (Homo sapiens, UniProt P0DMV8); assay: Hsp70 inhibitors, SAR follow-up, biochemical, fluorescence polarization (AID 1072)
Chain of Heat shock 70 kDa protein 1A (P0DMV8 whole entry): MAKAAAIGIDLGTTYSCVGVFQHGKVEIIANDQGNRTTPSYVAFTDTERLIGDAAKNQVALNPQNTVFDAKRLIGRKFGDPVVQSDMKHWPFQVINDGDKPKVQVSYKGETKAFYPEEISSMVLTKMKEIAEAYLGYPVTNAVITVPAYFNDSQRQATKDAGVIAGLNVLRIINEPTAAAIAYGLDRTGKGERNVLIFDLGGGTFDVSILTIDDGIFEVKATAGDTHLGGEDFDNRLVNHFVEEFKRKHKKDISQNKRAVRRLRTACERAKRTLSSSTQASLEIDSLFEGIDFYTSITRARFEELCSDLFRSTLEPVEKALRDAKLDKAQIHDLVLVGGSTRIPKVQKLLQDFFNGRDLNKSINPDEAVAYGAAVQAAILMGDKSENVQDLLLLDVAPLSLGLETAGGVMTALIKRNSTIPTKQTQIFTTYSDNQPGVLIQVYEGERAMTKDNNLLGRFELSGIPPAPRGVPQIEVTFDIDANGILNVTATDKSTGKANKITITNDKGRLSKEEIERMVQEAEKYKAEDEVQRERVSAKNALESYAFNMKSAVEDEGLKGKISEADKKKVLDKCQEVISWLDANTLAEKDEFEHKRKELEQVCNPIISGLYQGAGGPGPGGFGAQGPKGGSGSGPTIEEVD

T1 sequence (Q07820 whole entry): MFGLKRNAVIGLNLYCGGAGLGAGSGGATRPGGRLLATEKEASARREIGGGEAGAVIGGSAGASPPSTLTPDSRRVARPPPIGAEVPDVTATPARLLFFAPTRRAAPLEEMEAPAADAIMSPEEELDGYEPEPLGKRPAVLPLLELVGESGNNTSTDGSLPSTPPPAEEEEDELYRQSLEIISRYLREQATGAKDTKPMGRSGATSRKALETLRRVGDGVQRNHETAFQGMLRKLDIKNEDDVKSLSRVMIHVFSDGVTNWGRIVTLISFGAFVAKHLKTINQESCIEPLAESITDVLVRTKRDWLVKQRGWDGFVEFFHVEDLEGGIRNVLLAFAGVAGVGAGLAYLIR
Chain of Glyceraldehyde-3-phosphate dehydrogenase (P04406 whole entry): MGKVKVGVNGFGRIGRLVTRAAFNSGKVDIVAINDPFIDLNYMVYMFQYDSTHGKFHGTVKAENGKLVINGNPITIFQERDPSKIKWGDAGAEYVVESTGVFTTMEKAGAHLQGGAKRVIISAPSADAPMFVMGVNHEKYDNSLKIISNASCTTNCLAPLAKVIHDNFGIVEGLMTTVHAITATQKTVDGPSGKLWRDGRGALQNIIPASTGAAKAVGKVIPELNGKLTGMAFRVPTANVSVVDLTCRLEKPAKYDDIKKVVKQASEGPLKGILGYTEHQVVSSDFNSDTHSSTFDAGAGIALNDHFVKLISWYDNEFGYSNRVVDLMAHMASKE
Chain of Bcl-2-like protein 10 (Q9HD36 whole entry): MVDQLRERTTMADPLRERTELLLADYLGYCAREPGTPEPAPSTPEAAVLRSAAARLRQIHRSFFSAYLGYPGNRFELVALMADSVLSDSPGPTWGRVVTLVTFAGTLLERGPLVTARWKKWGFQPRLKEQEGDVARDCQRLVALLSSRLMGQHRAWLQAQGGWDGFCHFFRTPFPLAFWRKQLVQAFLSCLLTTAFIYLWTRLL
Chain of Heat shock cognate 71 kDa protein (P11142 whole entry): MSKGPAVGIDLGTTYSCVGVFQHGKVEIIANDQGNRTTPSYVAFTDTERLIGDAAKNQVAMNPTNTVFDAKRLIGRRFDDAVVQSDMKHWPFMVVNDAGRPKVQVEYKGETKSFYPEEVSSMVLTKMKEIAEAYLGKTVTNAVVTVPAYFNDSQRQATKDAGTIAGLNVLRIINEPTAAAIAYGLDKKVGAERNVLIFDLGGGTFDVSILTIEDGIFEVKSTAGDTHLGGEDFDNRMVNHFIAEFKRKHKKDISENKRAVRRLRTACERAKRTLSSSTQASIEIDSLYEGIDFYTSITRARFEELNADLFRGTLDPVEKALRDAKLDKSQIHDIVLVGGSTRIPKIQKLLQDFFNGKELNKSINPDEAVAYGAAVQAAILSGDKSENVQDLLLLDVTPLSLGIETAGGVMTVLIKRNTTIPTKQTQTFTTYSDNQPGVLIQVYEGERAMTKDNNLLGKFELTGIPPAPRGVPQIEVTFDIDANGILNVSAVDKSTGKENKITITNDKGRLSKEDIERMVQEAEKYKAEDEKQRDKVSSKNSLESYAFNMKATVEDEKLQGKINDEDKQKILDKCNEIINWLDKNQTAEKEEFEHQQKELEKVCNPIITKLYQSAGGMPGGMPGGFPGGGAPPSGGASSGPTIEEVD
Chain of Bcl-2-like protein 1 (Q07817 whole entry): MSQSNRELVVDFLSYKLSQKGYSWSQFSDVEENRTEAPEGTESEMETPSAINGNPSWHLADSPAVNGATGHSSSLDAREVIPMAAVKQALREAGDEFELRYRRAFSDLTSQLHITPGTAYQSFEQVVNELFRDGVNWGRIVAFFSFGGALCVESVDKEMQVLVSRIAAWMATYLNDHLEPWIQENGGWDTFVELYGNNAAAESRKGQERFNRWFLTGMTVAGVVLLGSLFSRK

O=C(O)c1cccc2c1NC(c1cccc(Cl)c1Cl)C1CC=CC21 (stereo not given)
EC50 [1]: 2.67 µM (active)

O=[N+]([O-])c1cc(Cl)cc(/C=N/NC(=S)Nc2cc(S(=O)(=O)N3CCOCC3)ccc2Cl)c1O
IC50 [2]: 2.19 µM (active) | CC50 [3]: 25.7 µM (active) | IC50 [4]: 25.1 µM (active) | IC50 [5]: > 109 µM (not active) | IC50 [6]: 49.3 µM (not active)

CCCOc1ccc(/C=N/Nc2ccc(C(=O)O)cc2)c(OCCC)c1
EC50 [7]: 11.4 µM (not active) | EC50 [8]: 26.3 µM (not active) | EC50 [9]: 16.5 µM (not active)

O=C1C=Cc2ccccc2C1=O [1,2-NAPHTHOQUINONE]
AC50 [10]: 5.81 µM (active) | EC50 [11]: 9.13 µM (active) | EC50 [12]: > 100 µM (active)

Nc1ncnc2c1ncn2[C@@H]1O[C@H](COP(=O)(O)OP(=O)(O)OP(=O)(O)O)[C@@H](O)[C@H]1O [ADENOSINE TRIPHOSPHATE]
IC50 [13]: 17.3 µM (active) | IC50 [14]: > 100 µM (not active) | IC50 [15]: 3.37 µM (active)

Source: ChEMBL document CHEMBL1201862, “PubChem BioAssay data set” (2004)
